Literature values, collected in US20070122486A1, “Nanoparticulate insulin” (Elan Pharma International Limited, priority 2001, published 2007).

Conditions: physiological conditions

Soluble insulin: Available soluble composition of insulin, a 5.8 kD protein hormone
duration of activity: about six | onset of activity: about 30 minutes
